Experiment: xn = mol fraction of the nth substance listed

ClC(Cl)(Cl)Cl + COC(=O)OC
viscosity [mPa·s], 101.33 kPa
Settings	x2 = 0.0994	x2 = 0.201	x2 = 0.3063	x2 = 0.4005	x2 = 0.5036	x2 = 0.5982	x2 = 0.7031	x2 = 0.833	x2 = 0.8997
298.15 K	0.77	0.724	0.689	0.656	0.631	0.608	0.585	0.557	0.543
303.15 K	0.719	0.68	0.646	0.614	0.588	0.572	0.548	0.52	0.511
308.15 K	0.676	0.633	0.604	0.575	0.551	0.536	0.516	0.493	0.481

CCCC(C)=O + CC(C)=O
viscosity [mPa·s], 101 kPa
Settings	x1 = 0.2	x1 = 0.4	x1 = 0.6	x1 = 0.8
293.15 K	0.355	0.391	0.429	0.467
313.15 K	0.294	0.322	0.349	0.377

[Br-].[Li+] + CO
101 kPa
Settings	viscosity [mPa·s]
293.15 K, x2 = 0.7334	86.34
293.15 K, x2 = 0.7699	40.18
293.15 K, x2 = 0.804	20.18
293.15 K, x2 = 0.8367	10.43
293.15 K, x2 = 0.8645	6.343
293.15 K, x2 = 0.8908	4.223
303.15 K, x2 = 0.6926	102.1
303.15 K, x2 = 0.7326	55.05
303.15 K, x2 = 0.7698	28.35
303.15 K, x2 = 0.8039	15.05
303.15 K, x2 = 0.836	8.725
303.15 K, x2 = 0.8642	5.422
303.15 K, x2 = 0.8908	3.697
313.15 K, x2 = 0.6913	65.32
313.15 K, x2 = 0.7324	35.2
313.15 K, x2 = 0.7697	19.67
313.15 K, x2 = 0.8039	11.37
313.15 K, x2 = 0.836	7.147
313.15 K, x2 = 0.8644	4.634
313.15 K, x2 = 0.8908	3.566
323.15 K, x2 = 0.691	42.31
323.15 K, x2 = 0.7323	24.55
323.15 K, x2 = 0.7696	14.41
323.15 K, x2 = 0.8039	9.136
323.15 K, x2 = 0.836	5.438
323.15 K, x2 = 0.8644	3.976

ClC(Cl)(Cl)Cl + C1CCCCC1
Settings	viscosity [mPa·s]
298 K, 101 kPa, x1 = 0.2753	0.8903
298 K, 101 kPa, x1 = 0.3845	0.8916
298 K, 101 kPa, x1 = 0.4418	0.8924
298 K, 101 kPa, x1 = 0.4727	0.8928
298 K, 101 kPa, x1 = 0.58	0.8943
298 K, 101 kPa, x1 = 0.6707	0.8955
298 K, 101 kPa, x1 = 0.6805	0.8956
298 K, 101 kPa, x1 = 0.7701	0.8969
298 K, 101 kPa, x1 = 0.864	0.8982
298 K, 101.3 kPa, x1 = 0.1774	0.847
298 K, 101.3 kPa, x1 = 0.3265	0.831
298 K, 101.3 kPa, x1 = 0.5278	0.836
298 K, 101.3 kPa, x1 = 0.6746	0.844
298 K, 101.3 kPa, x1 = 0.8521	0.86
298.15 K, 101 kPa, x1 = 0.272	0.858
298.15 K, 101 kPa, x1 = 0.5295	0.8568
298.15 K, 101 kPa, x1 = 0.7707	0.867
298.15 K, 101.33 kPa, x1 = 0.272	0.858
298.15 K, 101.33 kPa, x1 = 0.5	0.8551
298.15 K, 101.33 kPa, x1 = 0.5295	0.8568
298.15 K, 101.33 kPa, x1 = 0.625	0.8594
298.15 K, 101.33 kPa, x1 = 0.7707	0.867
318 K, 101.3 kPa, x1 = 0.1636	0.6445
318 K, 101.3 kPa, x1 = 0.3244	0.6522
318 K, 101.3 kPa, x1 = 0.5293	0.667
318 K, 101.3 kPa, x1 = 0.6744	0.6869
318 K, 101.3 kPa, x1 = 0.8658	0.7148

From the CheMixHub viscosity set
